From patent publication US8877795B2, “Identification of stabilizers of multimeric proteins” (The Board of Trustees of the Leland Stanford Junior …, priority 2010, dated 2014)
Read-outs that look alike come from different tables or passages of the source.

Experiments:
human wild type TTR = human wild type TTR (Homo sapiens (Human), UniProt P02766); test: Isothermal titration calorimetry (ITC) of ligands against TTR; format: binding; details: for TΔS binding entropy / ΔG binding free energy / ΔH binding enthalpy: ITC; for Kd: TTR 2 μM titrated with ligand 25 μM
Description: Calorimetric titrations were carried out on a VP-ITC calorimeter (MicroCal, Northhampton, Mass.). […] Prior to each titration, all samples were degassed for 10 minutes. The initial injection of 3.0 μL was followed by 30 injections of 8.0 μL each (25° C.) to the point that TTR was fully saturated with ligand. Integration of the thermogram after subtraction of blanks yielded a binding isotherm that was analyzed with MicroCal Origin 5.0 software.

[1] = tested on: WT TTR cytotoxicity in human IMR-32 neuroblastoma cells; test: Inhibition of WT TTR cytotoxicity in IMR-32 cells; details: TTR and ligand 8 μM, 24 h
Description: (§1) The human cardiac cell line AC16 was maintained in DMEM:F12 (1:1) supplemented with 10% FBS, 1 mM Hepes buffer, 2 mM L-glutamine, 100 units/mL penicillin and 100 μg/mL streptomycin. Two to 4-day-old cultures (˜70% confluent) were used for the experiments.
(§2) Recombinant WT TTR purified in the cold in HBSS (Mediatech, Manassas, Va.) was used as a cytotoxic insult to IMR-32 cells and the amyloidogenic V122I TTR was used as cytotoxic insult to cardiac AC16 cells. Candidate compounds (16 mM in DMSO) were diluted 1:1000 with WT TTR or V122I TTR (16 mM in HBSS, filter sterilized) or with HBSS only. The mixtures were vortexed and incubated for 24 h at 4° C. WT TTR or V122I TTR (16 mM in HBSS) containing the same amount of DMSO than TTR/candidate compound mixtures was prepared in parallel and incubated under the same conditions.
(§3) The neuroblastoma IMR-32 and the cardiac AC16 cells were seeded in black wall, clear bottom, tissue culture treated 96-well plates (Costar) at a density of 6,000 cells/well and 250 cells/well, respectively in Opti-mem supplemented with 5% FBS, 1 mM Hepes buffer, 2 mM L-glutamine, 100 units/mL penicillin and 100 μg/mL streptomycin, 0.05 mg/mL CaCl2 and incubated overnight at 37° C. The medium was then removed and replaced immediately by the TTR/compound or HBSS previously diluted 1:1 in Opti-mem supplemented with 0.8 mg/mL BSA, 2 mM Hepes buffer, 4 mM L-glutamine, 200 units/mL penicillin, 200 μg/mL streptomycin and 0.1 mg/mL CaCl2. The cells were incubated 24 h at 37° C. after which cell viability was measured.
(§4) Cell viability of the cells treated with TTR or TTR/candidate compound was evaluated by a resazurin reduction assay. Briefly, 10 μL/well of resazurin (500 mM, PBS) was added to each well and incubated for 2-3 h at 37° C. Viable cells reduce resazurin to the highly fluorescent resorufin dye, which is quantitated in a multiwell plate reader (Ex/Em 530/590 nm, Tecan Safire2, Austria). Cell viability was calculated as percentage of fluorescence relative to cells treated with vehicle only (100% viability) after subtraction of blank fluorescence (wells without cells). All experimental conditions were performed at least in six replicates. Averages and SEM corresponding to 2 independently performed experiments were calculated.
(§5) The compounds under study were pre-incubated with WT TTR or V122I TTR for 24 h at 4° C. at equimolar concentrations (8 μM) and added to IMR-32 cells or AC16 cells, respectively. Cell viability was measured after 24 h by a resazurin reduction assay. […] The percentage of viable cells was calculated relative to cells treated with vehicle only (cell culture media and DMSO)—which were assigned to be 100% viable.

WT TTR = WT TTR (Homo sapiens (Human), UniProt P02766); test: Acid-mediated fibril formation assay for TTR amyloidogenesis (turbidity); details: substoichiometric: ligand 3.0 μM, TTR 3.6 μM, monitored over 5 days
Description: The efficacy of each compound to inhibit TTR amyloidogenesis was determined by monitoring the turbidity of TTR aggregation at acidic pH, as described previously. […] The final 1 ml sample mixture was vortexed, then incubated at 37° C. for 72 hours, after which the sample was vortexed and the optical density was measured at 400 nm on a Beckman DU® 640 spectrophotometer. […] The optical density was also corrected for the absorption of all test compounds in the absence of TTR. […] The optical density (400 nm) was measured as described above at 0, 24, 48, 72, 96, and 120 hours. All assays were performed in triplicate and the average values obtained are presented.
TTR was preincubated with small molecules for 30 min at room temperature before amyloidosis was initiated (lowering pH to 4.4, incubation at 37° C.). […] The amyloidogenesis inhibition efficacy of each compound was determined by monitoring the turbidity of TTR (400 nm). The extent of TTR amyloidogenesis was quantitated at a fixed time point (72 h). All amyloid fibril formation data was normalized to TTR amyloidogenesis in the absence of inhibitor, assigned to be 100% fibril formation. […] The aggregation inhibition was monitored over 5 days using the acid-mediated fibril formation assay (compared to 3 days for the fixed time point described above) (FIG. 5B).

[2] = tested on: V122I TTR cytotoxicity in human AC16 cardiac cells; test: Inhibition of V122I TTR cytotoxicity in AC16 cells; details: TTR and ligand 8 μM, 24 h
Description: as §1, §2, §3, §4, §5

TTR [3] = target: T1, TTR (Homo sapiens (Human), UniProt P02766); details: read-out: Kd (reported affinity for TTR); cited from earlier work
TTR [4] = target: T1, TTR; test: Fluorescence polarization displacement assay (probe 5 displaced from TTR); format: binding; details: probe 5 100 nM, TTR 200 nM
Description: The affinity of test compounds to TTR was determined as follows. […] The samples were allowed to equilibrate by agitation for 20 min at room temperature and the fluorescence polarization was measured as described above. The data were fit to the following equation [y=(A−D)/(1+(x/C)^B)+D] where A=maximum FP signal, B=slope, C=apparent binding constant (Kapp), and D=minimum FP signal. The apparent binding constant was reported as mean for triplicate experiments and the best data fit was determined by R^2 value.

IL-2 = IL-2 (Homo sapiens (Human), UniProt P60568); details: cited from earlier work
[5] = target: wild type biotinylated TTR (Homo sapiens (Human), UniProt P02766); test: Surface plasmon resonance (SPR) assay for TTR-ligand interaction; format: binding
Description: To an ice-cold solution of TTR (20 μM) in PBS was added EZ-Link Sulfo-NHS-LC-Biotin at a ratio of ˜2:1 (biotin:TTR) (minimal biotinylation) and the solution was incubated at room temperature. After 1 hour, un-reacted biotin was removed by passing the sample over a fast (FPLC) desalting column (Superdex™ 75) equilibrated with PBS.
SPR measurements were performed at 25° C. using a Biacore T100 (GE Healthcare) instrument equilibrated in 1% DMSO in PBS as a running buffer. After pretreatment of the streptavidin-coated chip (Sensor Chop SA, Biacore), ˜4000 RU biotinylated TTR was immobilized on one channel leaving the second flow channel as a blank (streptavidin alone) control. For binding measurements, HTS hits were diluted in running buffer (1% DMSO/PBS) and different dilution series were flowed over the chip at 50 μL/min ([…], 600 s wash). A zero concentration sample was used as a negative control. The kinetic data was fitted to a one-to-one binding model using Biacore T100 evaluation software.

TTR [6] = target: T1, TTR; test: Fluorescence polarization saturation binding experiment
Description: The binding of probe 5 for TTR was evaluated as follows. […] The samples were allowed to equilibrate by agitation for 20 min at room temperature. Fluorescence polarization (excitation λ 485 nm, emission λ 525 nm, Cutoff λ 515 nm) measurements were taken using SpectraMax M5 Microplate Reader (Molecular Devices). […] Nonspecific FP, produced by the free fluorescent probe 5 as well as by binding of 5 to the plate, was equal to 70±10 mP.

[7] = 25° C., one-to-one binding model, read-out: Kd (ITC)
[8] = read-out: FP Kapp (apparent binding constant)

Chain of IL-2 (P60568 21-153): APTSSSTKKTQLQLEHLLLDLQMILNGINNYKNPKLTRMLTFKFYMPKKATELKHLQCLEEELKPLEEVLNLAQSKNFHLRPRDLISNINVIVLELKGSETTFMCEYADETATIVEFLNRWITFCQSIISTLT

Molecule	TΔS binding entropy (human wild type TTR) [kcal/mol]	ΔG binding free energy (human wild type TTR) [kcal/mol]	ΔH binding enthalpy (human wild type TTR) [kcal/mol]	Kd (human wild type TTR; [7]) [nM]	inhibition of fibril formation (WT TTR) [%]	Kd (human wild type TTR; read-out: ITC Kd) [nM]	Kd (TTR [4]; [8]) [nM]	further results
O=C(O)c1ccc(-c2c(F)cccc2F)cc1 [Compound 1, reference compound]	-21.72 ± 0.26	-9.74 ± 0.10	-31.46 ± 0.37	72.5 ± 4.7		72.4		Kd (TTR [3]): 80 nM; apparent binding constant (Kapp) (TTR [4]; [8]): 231 nM
Ro26-4550								IC50 (IL-2; read-out: IC50 (IL-2 antagonist)): 3000 to 6000 nM; IC50 (IL-2; read-out: IC50 (Ro26-4550 bound to IL2)): 6000 nM
Fluorescein isothiocyanate [FITC]								change in FP signal upon addition of TTR (TTR [6]): no change in the FP signal

Second part, led by results:

TΔS binding entropy (human wild type TTR) [kcal/mol]	ΔG binding free energy (human wild type TTR) [kcal/mol]	ΔH binding enthalpy (human wild type TTR) [kcal/mol]	Kd (human wild type TTR; [7]) [nM]	inhibition of fibril formation (WT TTR) [%]	Kd (human wild type TTR; read-out: ITC Kd) [nM]	Kd (TTR [4]; [8]) [nM]	Molecule	further results
2.36 ± 0.08	-9.02 ± 0.19	-6.66 ± 0.22	245	> 75			CN1C(=N)NC(=O)/C1=C/c1cc(Br)c(O)c(Br)c1 [Compound 14]	prevention of WT TTR-induced cytotoxicity (in words) [1]: completely prevented TTR-induced cytotoxicity; prevention of V122I TTR-induced cytotoxicity (in words) [2]: completely prevented TTR-induced cytotoxicity
			> 3290		> 3290	> 50000	NCCOCCOCCNC(=O)c1ccc(-c2c(F)cccc2F)cc1 [Compound 2, N-(2-(2-(2-aminoethoxy)ethoxy)ethyl)-2′,6′-difluorobiphenyl-4-carboxamide]	displacement of probe 5 from TTR (FP signal) (TTR [4]): did not displace probe 5
4.08 ± 0.37	-8.78 ± 0.59	-4.69 ± 0.42	370	~55	370	4660	O=C(O)Cc1ccccc1Nc1c(Cl)cccc1Cl [Diclofenac, reference compound]	TΔS binding entropy (human wild type TTR; listed as diclofenac): 4.08 ± 0.37 kcal/mol; ΔG binding free energy (human wild type TTR; listed as diclofenac): -8.78 ± 0.59 kcal/mol; ΔH binding enthalpy (human wild type TTR; listed as diclofenac): -4.69 ± 0.42 kcal/mol; Kd ([5]; 25° C., read-out: Kd (SPR, equilibrium / steady state analysis)): 124 ± 8.91 nM; koff ([5]; SPR): 1.01 s⁻¹; kon ([5]; SPR): 8.18e+06 M⁻¹ s⁻¹; lower target residence time than 7 ([5]; SPR): ~40 ×
